Results taken from patent US20230413857A1, “COMPOSITIONS OF MICROORGANISMS AND METHODS OF USING SAME” (The State of Israel, Ministry of Agriculture & Rural …, priority 2020, published 2023).

Key:
Saprolegnia parasitica = experiment: 8-Nonenoic acid vs. Saprolegnia parasitica in Tilapia eggs bioassay test; type: in vivo, Tilapia (Oreochromis mossambicus) eggs; conditions: S. parasitica plugs and 10 μg/ml, one week, 26° C.
Procedure: Tilapia (Oreochromis mossambicus) eggs, 3 days post fertilization, were collected from the hatchery at the department of fisheries in ARO the Volcani Center and brought to the lab. Eggs were rinsed with aquarium water. Eggs were introduced to 100 ml flasks (25 ml water in each flask), 6 eggs for each flask. Eggs were introduced with Saprolegnia parasitica plugs in the flask or with Saprolegnia parasitica plugs and 10 μg/ml 8-Nonenoic acid. Control eggs were not treated and/or supplemented. Flasks were incubated on a shaker under controlled conditions: 26° C., 95 rpm, and day light for a week.

Pythium aphanidermatum = experiment: Paper disk in-vitro bioactivity assay on PDA plates; type: cell-based; conditions: PDA plate
S. parasitica mycelia = experiment: Compound bioassays of 8-Nonenoic acid in liquid and solid media; type: cell-based, Saprolegnia parasitica; conditions: for Concentration giving full inhibition of S. parasitica growth: 19° C., 3 days
Procedure: The inhibition activity of the compound 8-Nonenoic acid was examined in both liquid and solid media. For liquid assay, a plug of PDA harboring the S. parasitica mycelia was introduced to 1 ml of sterile double distilled water (DDW) with 10 μl of potato dextrose broth (PDB) and varying concentrations of 8-Nonenoic acid (0, 0.1, 0.5, 1, 2.5, 5, 7.5, 10, 20 μg/ml) in 48 well plate and incubated at 19° C. for 3 days. For solid assay, a plug of PDA harboring the S. parasitica mycelia was introduced to 50 mm PDA petri plates with varying concentrations of 8-Nonenoic acid (as described above) and incubated at 19° C. for 3 days. For both liquid and solid, mycelium growth radios was measured and S. parasitica plugs viability were evaluated by transferring them to fresh PDB/PDA and observing the growth developed within 3 days. All experiments were performed in triplicates.

Achlya bisexualis = experiment: Paper disk in-vitro bioactivity assay on PDA plates; type: cell-based; conditions: PDA plate
Photobacterium damselae = type: cell-based; conditions: 200 μg
Phytophthora infestans = type: cell-based; conditions: 200 μg on a paper disk, PDA plate
Aeromonas salmonicida = type: cell-based; conditions: 200 μg
Streptococcus iniae = type: cell-based; conditions: 200 μg

SMILES	Survival of Tilapia eggs (Saprolegnia parasitica)	Inhibition of the oomycote mycelium (Pythium aphanidermatum; 100 μg on a paper disk)	Inhibition of S. parasitica growth (S. parasitica mycelia; 0.1 g/ml in both water and agar)	Inhibition of S. parasitica growth (S. parasitica mycelia; 0.5-2.5 μg/ml, agar phase)	Concentration at which the growth radius decreased (S. parasitica mycelia; in agar)	Concentration giving full inhibition of S. parasitica growth (S. parasitica mycelia; in agar (solid assay))	Concentration giving full inhibition of S. parasitica growth (S. parasitica mycelia; in water (liquid assay))	Ability to inhibit S. parasitica growth (screen of compounds identified from ABp5) (S. parasitica mycelia; purchased GC/MS-identified compounds, FIG. 13A)	Viability of fully inhibited S. parasitica plugs (S. parasitica mycelia; transferred to a new plate)	Inhibition of the oomycote mycelium (Achlya bisexualis; 100 μg on a paper disk)	Inhibitory activity (Photobacterium damselae)	Inhibition of the oomycete mycelium (Phytophthora infestans)	Inhibitory activity (Aeromonas salmonicida)	Inhibition of the oomycete mycelium (Pythium aphanidermatum; 200 μg on a paper disk)	Inhibitory activity (Streptococcus iniae)	Inhibition of the oomycete mycelium (Achlya bisexualis; 200 μg on a paper disk)
C=CCCCCCCC(=O)O [8-Nonenoic acid]	did survive	showed inhibition	No inhibition	no inhibition	≥ 5 µg/mL	20 µg/mL	2.5 µg/mL	strong ability to inhibit	complete loss of viability	showed inhibition	–	–	–	–	–	–
CC(C)(c1ccccc1)c1ccc(O)cc1 [4-Cumylphenol]	–	–	–	–	–	–	–	–	–	–	showed inhibitory activity	showed inhibition	showed inhibitory activity	showed inhibition	showed inhibitory activity	showed inhibition
